“Also recorded” adds a separate entry of the source.
Tests used:
[1] = tested on: lymph node cells and splenocytes; experiment: PLP139-151-induced cytokine secretion by cells from PGPC-treated EAE mice; type: in vivo, mouse
Method: PLP-stimulated cells from PLP139-151-immunized mice administered PGPC prophylactically: SJL/J mice were co-injected with PGPC and PLP139-151 in CFA and sacrificed 48 days later. Lymph node cells and splenocytes were then harvested and re-stimulated in vitro (2.5×10^6 cells/ml) with 10 μg/ml of PLP139-151 or with media alone. PLP-stimulated cells from untreated PLP139-151-immunized mice: SJL/J mice were immunized with PLP139-151 in CFA and sacrificed 10 days later. Splenocytes were then harvested and re-stimulated in vitro (at 5×10^5 cells/ml) with 10 μg/ml of PLP139-151 in the presence of 30 μg/ml of POPS, PGPC, azPC ester, or azPC. Cytokine production by cells from the lymph nodes and spleens of PGPC co-immunized mice was measured after 66 hours of stimulation by using the BD OptEIA™ Mouse IFN-γ ELISA kit (BD Biosciences). Cytokine assays for the anti-CD3/anti-CD28 antibody-stimulated T cells and PLP139-151-stimulated splenocytes were performed on culture supernatants after 48 hours of stimulation using the BD OptEIA™ Mouse IL-6, IFN-γ, and TNF alpha ELISA kits (BD Biosciences) and the Mouse IL-17 DuoSet ELISA Development kit (R&D Systems).

[2] = tested on: EAE in PLP139-151-immunized SJL/J mice; experiment: EAE, lipid administered prophylactically (co-immunization with PLP139-151); type: in vivo, mouse; conditions: 6 μg/injection; s.c. with PLP139-151 on day 0, i.p. on days 4 and 7
Method: Animal experiments were approved by, and performed in compliance with, the National Institute of Health guidelines of the Institutional Animal Care and Use Committee at Stanford University. For induction of EAE, 8- to 12-week-old female SJL/J mice (Jackson Laboratory) were immunized subcutaneously with 100 μg of PLP139-151 emulsified in CFA (Difco Laboratories). Three injections of PGPC (6 μg/mouse/injection) or vehicle (0.05% Tween-20 in PBS) were delivered on days 0, 4, and 7 after immunization with PLP139-151. On day 0, the lipid or vehicle was emulsified together with PLP139-151 in CFA and administered by subcutaneous injection. At subsequent time points, lipid or vehicle was injected intraperitoneally. EAE was assessed as previously described. To induce EAE in SJL/J mice (Jackson Mice), we immunized 8- to 12-week-old female animals subcutaneously with 100 μg of PLP139-151 emulsified in CFA (Difco Laboratories). Prophylactic administration of lipid: Three injections of PGPC or sphingomyelin (6 μg/mouse/injection) or vehicle (0.05% Tween-20 in PBS) were delivered on days 0, 4, and 7 after immunization with PLP139-151. […] Clinical disease was monitored daily using the following scoring system: 0, no disease; 1, limp tail; 2, hind limb weakness; 3, hind limb paralysis; 4, hind limb and forelimb paralysis; 5, death. […]

[3] = tested on: CD4+ T cells; experiment: CD69 expression on lymph node cells from PGPC-treated EAE mice (flow cytometry); type: in vivo, mouse; conditions: lymph node cells of prophylactically treated EAE mice, cultured 4 days with 10 μg/ml PLP139-151
Method: FIG. 9. PGPC treatment of mice with EAE suppresses T-cell activation. (A) Expression of CD69 (an early marker of activation) on CD4+ and CD8+ propidium iodide-negative (i.e. live) lymphocytes isolated from PGPC—or vehicle-treated EAE mice and cultured for 4 days with 10 μg/ml of PLP139-151. The ratio of CD69+CD4+:CD69−CD4+ is 14.2%:39.6% for lymph node cells from vehicle-treated EAE mice, and 7.96%:55.2% for cells from PGPC-treated EAE mice. […] (B) Proliferation and (C) cytokine production of splenocytes isolated from the vehicle- or PGPC-treated EAE mice in panel A. Splenocytes from PGPC-treated mice (gray bars) secreted lower levels of IFN-γ and TNF in response to PLP139-151. *P<0.05, respectively, by Student's t-test comparing PLP139-151-stimulated cells from PGPC-treated mice with PLP139-151-stimulated cells from vehicle-treated mice.
PLP-stimulated cells from PLP139-151-immunized mice administered PGPC prophylactically: SJL/J mice were co-injected with PGPC and PLP139-151 in CFA and sacrificed 48 days later. Lymph node cells and splenocytes were then harvested and re-stimulated in vitro (2.5×10^6 cells/ml) with 10 μg/ml of PLP139-151 or with media alone. […]
Cells were stained according to standard protocols, run on a FACScan flow cytometer (BD Biosciences), and analysed with CellQuest software (BD Immunocytometry Systems) or with FlowJo software version 6.3.2 (Tree Star, Inc.). […]

[4] = tested on: B cells; experiment: Apoptosis of anti-IgM F(ab')2/anti-CD40-stimulated purified B cells; type: cell-based, mouse; conditions: 30 μg/ml lipid, anti-IgM F(ab')2 and anti-CD40, 48 hours
Method: Anti-IgM F(ab′)2 fragment/anti-CD40-stimulated purified B cells: We harvested spleens from naive C57BL/6 mice and used a B-cell isolation kit (Miltenyi Biotec) to negatively isolate B cells. We then stimulated 5×10^5 cells/ml of B cells with 5 μg/ml of each of soluble anti-IgM F(ab′)2 fragment (Jackson ImmunoResearch) antibody and anti-CD40 antibody (eBioscience) in the presence of 30 μg/ml of POPS, PGPC, azPC ester, or azPC.
Cells were stained according to standard protocols, run on a FACScan flow cytometer (BD Biosciences), and analysed with CellQuest software (BD Immunocytometry Systems) or with FlowJo software version 6.3.2 (Tree Star, Inc.). The antibody conjugates used were FITC anti-CD4 (clone GK1.5, BD Pharmingen), FITC anti-mouse CD8 (clone 53-6.7, BD Pharmingen), FITC anti-mouse CD3 (clone 145-2C11, eBioscience), PE-anti-rat IgG2A isotype control (BD Pharmingen), and PE-anti-mouse CD69 (clone H1.2F3, eBioscience). 7AAD staining was performed by using the Annexin V-PE Apoptosis Detection Kit I (BD Pharmingen).

| SMILES | IFN-γ secretion upon PLP139-151 stimulation ([1]; cells from PGPC-treated vs vehicle-treated EAE mice) | TNF secretion upon PLP139-151 stimulation ([1]; splenocytes from PGPC-treated vs vehicle-treated EAE mice) | EAE severity (clinical score) [2] | CD4+CD69+ cells [3] | CD69−CD4+ cells [3] | apoptosis of activated B cells [4] |
| --- | --- | --- | --- | --- | --- | --- |
| CCCCCCCCCCCCCCCC(=O)OC[C@H](COP(=O)([O-])OCC[N+](C)(C)C)OC(=O)CCCC(=O)O [PGPC, 1-Palmitoyl-2-Glutaroyl-sn-Glycero-3-Phosphocholine] | secreted less IFN; also recorded: lower levels | lower levels | reduced the severity of EAE | 7.96% | 55.2% | – |
| CCCCCCCC/C=C\CCCCCCCC(=O)O[C@H](COC(=O)CCCCCCCCCCCCCCC)COP(=O)(O)OC[C@H](N)C(=O)O [POPS, 1-Palmitoyl-2-Oleoyl-sn-Glycero-3-[Phospho-L-Serine]] | – | – | – | – | – | increased apoptosis |
